Data on seven compounds can be found in patent USRE37516E1, “Acetamide derivative having defined particle size” (Cephalon, Inc., priority 1994, dated 2002).

“And” between values parts separate entries of the source, which are not always exact repeats. Equal entries are not always repeated.

A short description of data set [1]: Modafinil particle size analysis, Hiac/Royco Model 9064 sizing counter. It counts as physicochemical. The conditions noted are these: for MODAFINIL PARTICLE DIAMETER MEAN / MODAFINIL PARTICLE DIAMETER MEDIAN / MODAFINIL PARTICLE DIAMETER MODE: Hiac/Royco Model 9064, n = 4, +/− standard deviation; for STD DEVIATION BETWEEN MEAN, MEDIAN, MODE: derived from mean, median and mode particle diameter. From the text: Our particle size measurements were obtained using a Hiac/Royco Model 9064 sizing counter following manufacturer instructions (400 μm aperture; saturated water with modafinil solution; PDAS program). A summary of the results of these measurements is presented in Table 1, which includes the mean, median and mode particle sizes for six representative lots of modafinil. For comparative purposes, the standard deviation values derived from the mean, median and mode measurements are provided, as are the ratio values of median:mean:mode. Lots E-A, E-B, E-C and E-D were among the so-called early lots, and Lots L-1 and L-2 were among the so-called late lots.
Measurements obtained using instruments and techniques developed by Hiac/Royko are preferred. A Hiac/Royco sizing counter utilizes the principle of light-extinction (obscuration) for particle size detection. The principle involved is that when a particle suspended in a liquid passes through a sensor microcell where a laser beam is directed through a window at the cell, the particles in the fluid block the laser beam from a light-extinction photodiode (photodetector) resulting in a loss of light intensity. This loss of light intensity detected by the photodetector produces an electrical pulse for each particle. These pulses are proportional in amplitude to the light intensity (light extinction) which is a measure of particle size.

A short description of data set [2]: Plasma modafinil concentration in dogs after single oral dose of lots with different particle size. It counts as in vivo. The conditions noted are these: single oral dose of 200 mg, capsule, 0 to 36 hours. The protocol:
Given the disparity in results between the foreign and United States studies using what was presumed to be “identical” modafinil, additional non-human analyses were necessary prior to continuation of human clinical trials. Accordingly, animal studies in dogs were carried out to determine the in vivo pharmacokinetics of modafinil with different average particle size diameters, roughly designated as having “small” (Lot L-1) and “large” (Lots E-B and E-D) median particle sizes. Nine male dogs were randomly assigned, according to body weight to three dose groups. Each group was given a single oral dose of 200 of mg modafinil weekly for three weeks in a randomized, cross-over design, as described in Table 2.
After each weekly dose, blood samples (2 ml) were drawn from all animals by venepuncture predose (within one hour of dosing), and at 0.5, 1, 2, 3, 4, 6, 8, 10, 12, 18, 24, and 36 hours post-dose. Blood samples were collected in heparinized (lithium heparin) test tubes and centrifuged at 2,500 to 3,000 rpm. The plasma was drawn off with a glass pipette, and stored frozen (−20° C.) until analyzed. The plasma concentration of modafinil, and its acid and sulfone metabolites were simultaneously determined by high-pressure liquid chromatography, according to the method of Moachon et al. (J. Chromatag. B 654:91 (1994)).

Data set [3] concerns healthy males. The experiment in a line: First United States Phase I double-blind ascending dose clinical study. The class given is in vivo. The conditions noted are these: humans, oral, 800 mg/day dose level. From the text: While significant testing of modafinil had already been conducted outside the United States, new drug candidates, such as modafinil, typically undergo clinical research in the United States in order to corroborate the information obtained in foreign studies. The first United States clinical evaluation of modafinil was a double-blind, ascending dose study involving oral administration of modafinil to healthy males (i.e., physically and mentally healthy male subjects 18 to 50 years of age; average body weight of −10% to +15% of normal weight for age, height, frame and sex; 2101).
The planned doses for the first United States clinical trial were 200, 400, 600, 800, 1000, 1200 and 1400 mg/day of modafinil or placebo. These dose levels were based upon the safety profile observed during the foreign clinical testing of modafinil. Subsequent doses were given only when it was determined that the previously administered dose was safe and well tolerated. For example, the safety data for the 200 mg study dose was reviewed and assessed before other volunteers received the 400 mg dose.
In this first United States Phase I clinical study, modafinil from Lot L-1 was utilized. Complete data were obtained for three of the seven modafinil dose levels intended for testing, i.e., 200, 400, and 600 mg/day. […] These symptoms resolved without treatment or sequelae following drug discontinuation. […]

The nature of data set [4]: Dissolution rate of modafinil particles in deionized water (first experiment). The class given is physicochemical. The conditions noted are these: 50 mg in 500 ml deionized water, stirred, 0-60 minutes, HPLC; L-1 compared with E-D. The protocol: In the first experiment, 500 ml of deionized water was put in a 1-liter beaker and 50 mg of E-D or L-1 was added. The suspension was stirred constantly with a 5 cm Teflon-coated magnetic stir bar and a magnetic stir plate (Thermolyne model #546725). Samples of 1 ml each were taken at times 0, 1, 5, 10, 15, 20, 25, 30, 40, 50, and 60 minutes, with each sample being replaced with 1 ml of deionized water. The stir plate speed setting was “2” for the first 20 minutes, and “7” from 20 to 60 minutes Each sample was immediately filtered through a 0.45 μm filter, to remove undissolved particles. The filtered samples were assayed for modafinil, by high performance liquid chromatography, based upon the method of Moachon et al. (J. Chromatag. B 654:91 (1994)).

The test system of data set [5] is humans. The conditions noted are these: cited from earlier work.
The test system of data set [6] is mice. As to conditions: single administration; cited from earlier work.
Data set [7] concerns patients or healthy volunteers. The conditions noted are these: doses tested in the foreign studies; cited from earlier work.
The subject of data set [8] is monkeys. As to conditions: single administration; cited from earlier work.
In data set [9] the test system is normal young males. Nature of the data set: Second United States Phase I study (safety, tolerance, pharmacokinetics). The class given is in vivo, humans. As to conditions: oral, titrated in 200 mg/day increments, Lots L-1 or L-2. The method, then: After the discrepancy between the foreign and first United States studies was resolved and determined to be related to the differences in particle sizes, a second Phase I study was conducted in the United States, to further determine the clinical safety, tolerance and pharmacokinetic properties of modafinil having a particle size as defined. The second study involved normal young males and an experimental design similar to the first United States study (described above). In the second study, all subjects began at 200 mg/day using modafinil from Lots L-1 or L-2. Dosage was then titrated, in 200 mg/day increments, up to the target dose.

Data set [10] can be described thus: Modafinil particle size measurement, Coulter Counter TA II sizing counter. It counts as physicochemical. From the text: The value ranges defined above are based upon measurements made utilizing technology and instruments developed by the Hiac/Royko Division of Pacific Scientific (11801 Tech Road, Silver Spring, Md. 20904, United States of America). As those in the art may appreciate, different instruments manufactured by different companies may provide different measurements for the same particles. For example, in a characteristic modafinil lot (Lot L-2), the mean, median, and mode particle measurements obtained using a Coulter Counter TA II sizing counter were 43, 31, and 29 microns, respectively. Using a Hiac/Royko Model 9064 sizing counter, the mean, median and mode particle measurements obtained for Lot L-2 were 18.75, 31.41 and 25.31 microns, respectively. These differences are presumably predicated upon the different approaches used in measuring particles of such diminutive sizes. Thus, the value ranges provided above are relative and are most preferably to be considered in view of utilization of instruments and operating systems manufactured by Hiac/Royko, for example, and preferably, the Hiac/Royko Model 9064 system sizing counter.
Following this assumption, we compared various parameters from lots of the bulk drug; such comparisons had not been conducted previously, given the assumption that the modafinil being tested in the United States was the “same” as that investigated outside of the United States. Particle size distribution of the bulk drug was among the parameters examined. We have performed modafinil particle size analyses with a Hiac/Royko Model 9064 sizing counter, a Coulter Counter sizing counter, by optical microscopy and by scanning electron microscopy.

Regarding `NC(=O)C[S+]([O-])C(c1ccccc1)c1ccccc1` (centres unmarked) [Lot E-C, 2-(benzhydrylsulfinyl)acetamide], in data set [1] (listed as E-C), the “MODAFINIL PARTICLE DIAMETER MEAN” value is given as 28.27 +/− 4.10 μm; the “MODAFINIL PARTICLE DIAMETER MEDIAN” value is given as 79.00 +/− 3.78 μm; the “MODAFINIL PARTICLE DIAMETER MODE” value is 101.00 +/− 40.92 μm; the “STD DEVIATION BETWEEN MEAN, MEDIAN, MODE” value stood at 37.30.
With `NC(=O)C[S+]([O-])C(c1ccccc1)c1ccccc1` (centres unmarked) [Lot E-B, 2-(benzhydrylsulfinyl)acetamide], in data set [1] (listed as E-B), the “MODAFINIL PARTICLE DIAMETER MEAN” value is given as 29.99 +/− 1.09 μm; the “MODAFINIL PARTICLE DIAMETER MEDIAN” value is 89.10 μm and 89.10 +/− 4.28 μm; the “MODAFINIL PARTICLE DIAMETER MODE” value was 78.59 +/− 2.60 μm; the “STD DEVIATION BETWEEN MEAN, MEDIAN, MODE” value is 31.53. In data set [2] (listed as E-B), the “peak plasma modafinil concentration (mean, nine dogs)” value (“peak plasma modafinil concentration” for short) stood at 8 µg/mL.
Regarding `NC(=O)C[S+]([O-])C(c1ccccc1)c1ccccc1` [Lot L-1, 2-(benzhydrylsulfinyl)acetamide], in data set [1] (listed as L-1), the “MODAFINIL PARTICLE DIAMETER MEAN” value is on record as 21.40 +/− 2.52 μm; the “MODAFINIL PARTICLE DIAMETER MEDIAN” value is 50.18 μm and 50.18 +/− 12.57 μm; the “MODAFINIL PARTICLE DIAMETER MODE” value was 56.56 +/− 22.39 μm; the “STD DEVIATION BETWEEN MEAN, MEDIAN, MODE” value is 18.73. The adverse events entry in data set [3] was “elevations in heart rate and blood pressure”. Further, the dissolution rate entry in [4] is “faster dissolution rate”. Besides, the “peak plasma modafinil concentration” value in [2] (listed as L-1) was found to be 10 µg/mL.
As for `NC(=O)C[S+]([O-])C(c1ccccc1)c1ccccc1` (centres unmarked) [modafinil, 2-(benzhydrylsulfinyl)acetamide], in [5], the “treatment of idiopathic hypersomnia and narcolepsy” value is recorded as “successfully tested”. Besides, the locomotor activity entry in data set [6] is reported as “increased locomotor activity”. Besides, in data set [7], the “hemodynamic changes in heart rate or blood pressure” value is reported as “No statistically or clinically significant hemodynamic changes”. Also, in data set [8], the nocturnal activity result is on record as “increased nocturnal activity”. Moreover, in data set [9], the “maximum tolerable dose (MTD)” value is reported as 600 mg/day and the minimum intolerable dose is given as 800 mg/day.
Take `NC(=O)C[S+]([O-])C(c1ccccc1)c1ccccc1` [Lot L-2, 2-(benzhydrylsulfinyl)acetamide]: in [1] (listed as L-2), the “MODAFINIL PARTICLE DIAMETER MEAN” value is on record as 18.75 +/− 1.89 μm; the “MODAFINIL PARTICLE DIAMETER MEDIAN” value is on record as 31.41 +/− 3.57 μm; the “MODAFINIL PARTICLE DIAMETER MODE” value is listed as 25.31 +/− 1.34 μm; the “STD DEVIATION BETWEEN MEAN, MEDIAN, MODE” value is reported as 6.36. In data set [1] (Hiac/Royko Model 9064), this compound yielded a mean particle measurement of 18.75 microns, a median particle measurement of 31.41 microns and a mode particle measurement of 25.31 microns. In data set [10], this compound registered a mean particle measurement of 43 microns, a median particle measurement of 31 microns and a mode particle measurement of 29 microns.
`NC(=O)C[S+]([O-])C(c1ccccc1)c1ccccc1` (centres unmarked) [Lot E-A, 2-(benzhydrylsulfinyl)acetamide]: in data set [1] (listed as E-A), the “MODAFINIL PARTICLE DIAMETER MEAN” value is given as 34.60 +/− 5.21 μm; the “MODAFINIL PARTICLE DIAMETER MEDIAN” value is listed as 143.65 +/− 3.26 μm; the “MODAFINIL PARTICLE DIAMETER MODE” value is reported as 176.48 +/− 5.32 μm; the “STD DEVIATION BETWEEN MEAN, MEDIAN, MODE” value turned out to be 74.27.
Turning to `NC(=O)C[S+]([O-])C(c1ccccc1)c1ccccc1` (centres unmarked) [Lot E-D, 2-(benzhydrylsulfinyl)acetamide], in data set [1] (listed as E-D), the “MODAFINIL PARTICLE DIAMETER MEAN” value was 22.14 +/− 0.76 μm; the “MODAFINIL PARTICLE DIAMETER MEDIAN” value is 94.05 μm and 94.05 +/− 13.75 μm; the “MODAFINIL PARTICLE DIAMETER MODE” value is recorded as 158.63 +/− 63.81 μm; the “STD DEVIATION BETWEEN MEAN, MEDIAN, MODE” value was 68.28. The “peak plasma modafinil concentration” value in [2] (listed as E-D) stood at 8 µg/mL.
